Data as given in patent US9890166B2, “Imidazopyrrolidine derivatives and their use in the treatment of disease” (NOVARTIS AG, priority 2013, dated 2018).

Columns and labels:
MV-4-11 cells = assay: Cell growth inhibition assay (CellTiter-Glo), MV-4-11; settings: for GI50: Homo sapiens, MV4-11, read-out: MV-4-11 GI50; for MV-4-11 TGI: MV-4-11 cells, total growth inhibition, CellTiter-Glo;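 as to all read-outs here: cellular ATP luminescence after 4 days, 3-fold dilution series from 10 µM top dose, vehicle (0.1% DMSO) set to 100%, cell-free medium set to −100%, day 0 corrected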
THP-1 cells = assay: Cell growth inhibition assay (CellTiter-Glo), THP-1; settings: for GI50: Homo sapiens, THP-1, read-out: THP-1 GI50; for THP-1 TGI: THP-1 cells, total growth inhibition, CellTiter-Glo;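 as to all read-outs here: viability read as cellular ATP luminescence after 4 days, 3-fold dilution series from 10 µM, DMSO vehicle-treated cells taken as 100%, cell-free medium wells as −100%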
[1] = target: CREBBP bromodomain (His-CREBBP(1081-1197)) (Homo sapiens (Human), UniProt Q92793); assay: AlphaScreen in-vitro binding assay for CREBBP; settings: single determination or n ≧ 2 independent determinations, read-out: Biochemical IC50 CREBBP
Procedure, shortened: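 Reactions at 30 °C for 35 min, then Ni-chelate acceptor and streptavidin donor beads in HEPES pH 7.5, NaCl, Tween20, BSA, 60 min at room temperature. Eight-point compound series; IC50 by non-linear regression of percent inhibition.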

BRD3 (His-Brd3(20-477)) = BRD3 (His-Brd3(20-477)) (Homo sapiens (Human), UniProt Q15059); assay: TR-FRET in-vitro binding assay for BRD3; settings: single determination or n ≧ 2 independent determinations, read-out: Biochemical IC50 BRD3
Procedure, shortened: (§1)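 Compounds were serially diluted over eight concentrations and added to wells. TR-FRET signal was then measured.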

BRD4 (His-Brd4(44-477)) = BRD4 (His-Brd4(44-477)) (Homo sapiens (Human), UniProt O60885); assay: TR-FRET in-vitro binding assay for BRD4; settings: single determination or n ≧ 2 independent determinations, read-out: Biochemical IC50 BRD4
Procedure, shortened: as §1

BRD2 (His-Brd2(60-472)) = BRD2 (His-Brd2(60-472)) (Homo sapiens (Human), UniProt P25440); assay: TR-FRET in-vitro binding assay for BRD2; settings: single determination or n ≧ 2 independent determinations, read-out: Biochemical IC50 BRD2
Procedure, shortened: as §1

K-562 cells = assay: Cell growth inhibition assay (CellTiter-Glo), K-562; settings: for GI50: Homo sapiens, K562, read-out: K-562 GI50; for K-562 TGI: K-562 cells, total growth inhibition, CellTiter-Glo;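 as to all read-outs here: cellular ATP measured by luminescence after 4 days of exposure, 3-fold dilution series from 10 µM, DMSO vehicle-treated cells define 100%, cell-free medium wells −100%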

Chain of BRD3 (His-Brd3(20-477)) (Q15059 20-477): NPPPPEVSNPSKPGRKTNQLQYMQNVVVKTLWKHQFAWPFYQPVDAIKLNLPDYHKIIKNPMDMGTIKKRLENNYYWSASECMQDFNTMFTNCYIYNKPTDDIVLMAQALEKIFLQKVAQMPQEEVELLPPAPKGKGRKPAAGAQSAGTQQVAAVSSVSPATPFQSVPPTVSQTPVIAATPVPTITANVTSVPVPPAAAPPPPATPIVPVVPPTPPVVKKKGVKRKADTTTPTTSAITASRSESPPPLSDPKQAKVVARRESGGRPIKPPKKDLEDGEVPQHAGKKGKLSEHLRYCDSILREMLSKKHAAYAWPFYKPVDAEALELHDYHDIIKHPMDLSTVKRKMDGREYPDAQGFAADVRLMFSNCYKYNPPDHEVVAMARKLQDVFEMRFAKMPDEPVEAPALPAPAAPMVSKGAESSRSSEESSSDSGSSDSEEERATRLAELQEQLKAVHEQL
Chain of CREBBP bromodomain (His-CREBBP(1081-1197)) (Q92793 1081-1197): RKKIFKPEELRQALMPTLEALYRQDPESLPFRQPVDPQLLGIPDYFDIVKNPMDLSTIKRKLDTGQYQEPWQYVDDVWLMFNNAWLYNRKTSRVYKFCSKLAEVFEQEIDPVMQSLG
Chain of BRD2 (His-Brd2(60-472)) (P25440 60-472): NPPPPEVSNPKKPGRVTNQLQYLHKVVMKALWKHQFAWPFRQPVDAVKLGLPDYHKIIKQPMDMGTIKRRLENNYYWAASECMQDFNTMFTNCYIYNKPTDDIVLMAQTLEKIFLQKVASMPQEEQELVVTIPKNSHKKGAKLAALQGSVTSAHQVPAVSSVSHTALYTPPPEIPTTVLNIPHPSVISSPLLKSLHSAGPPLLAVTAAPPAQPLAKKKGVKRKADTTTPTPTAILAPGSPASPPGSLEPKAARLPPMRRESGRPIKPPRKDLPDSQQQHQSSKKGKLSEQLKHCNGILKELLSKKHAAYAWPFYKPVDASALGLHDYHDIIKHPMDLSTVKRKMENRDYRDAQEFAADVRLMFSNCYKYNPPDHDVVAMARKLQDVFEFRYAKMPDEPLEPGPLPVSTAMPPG

SMILES	GI50 (MV-4-11 cells) [µM]	GI50 (THP-1 cells) [µM]	IC50 [1] [µM]	IC50 (BRD3 (His-Brd3(20-477))) [µM]	IC50 (BRD4 (His-Brd4(44-477))) [µM]	IC50 (BRD2 (His-Brd2(60-472))) [µM]	GI50 (K-562 cells) [µM]	MV-4-11 TGI (MV-4-11 cells) [µM]	THP-1 TGI (THP-1 cells) [µM]	K-562 TGI (K-562 cells) [µM]
COc1ncccc1-c1nc2c(n1C(C)C)[C@@H](c1ccc(Cl)cc1)N(c1cc(OC)c3nnn(C)c3c1)C2=O [Example 111]	0.0186	0.0402	8.9	0.02	0.014	0.033	0.0901	0.04465	0.0921	>10
COc1ccc(-c2nc3c(n2C(C)C)C(c2ccc(Cl)cc2)N(c2cc(OC)c4nnn(C)c4c2)C3=O)cn1 (centres unmarked) [Example 113, 6-(4-chlorophenyl)-1-isopropyl-5-(4-methoxy-1-methyl-1H-benzo[d][1,2,3]triazol-6-yl)-2-(6-methoxypyridin-3-yl)-5,6-dihydropyrrolo[3,4-d]imidazol-4(1H)-one]	0.125	0.171	> 37	0.102	0.2	0.1	0.358	0.186	0.3595	>10
COc1ccc(-c2nc3c(n2C(C)C)[C@@H](c2ccc(Cl)cc2)N(c2cc(OC)c4nnn(C)c4c2)C3=O)cn1 [Example 114, (R)-6-(4-chlorophenyl)-1-isopropyl-5-(4-methoxy-1-methyl-1H-benzo[d][1,2,3]triazol-6-yl)-2-(6-methoxypyridin-3-yl)-5,6-dihydropyrrolo[3,4-d]imidazol-4(1H)-one]	0.0777	0.118	12.9	0.1	0.038	0.087	0.268	0.1585	0.3005	>10
COc1ncc(-c2nc3c([nH]2)C(c2ccc(Cl)cc2)N(c2cc(C)c4nnc(C)n4c2)C3=O)c(OC)n1 (centres unmarked) [Example 124, 6-(4-chlorophenyl)-2-(2,4-dimethoxypyrimidin-5-yl)-5-(3,8-dimethyl-[1,2,4]triazolo[4,3-a]pyridin-6-yl)-5,6-dihydropyrrolo[3,4-d]imidazol-4(1H)-one]	0.0562	0.0663	3.8	0.039	0.038	0.094	0.257	0.09675	0.1345	>10
COc1ccc(-c2nc3c([nH]2)[C@@H](c2ccc(Cl)cc2)N(c2cc(OC)c4nnc(C)n4c2)C3=O)cn1 [Example 126, (R)-6-(4-chlorophenyl)-5-(8-methoxy-3-methyl-[1,2,4]triazolo[4,3-a]pyridin-6-yl)-2-(6-methoxypyridin-3-yl)-5,6-dihydropyrrolo[3,4-d]imidazol-4(1H)-one]	0.408	0.947	25.9	0.283	0.104	0.385	2.27	0.592	1.7	>10
COc1ncc(-c2nc3c([nH]2)[C@@H](c2ccc(Cl)cc2)N(c2cc(OC)c4nnc(C)n4c2)C3=O)c(OC)n1 [Example 128, (R)-6-(4-chlorophenyl)-2-(2,4-dimethoxypyrimidin-5-yl)-5-(8-methoxy-3-methyl-[1,2,4]triazolo[4,3-a]pyridin-6-yl)-5,6-dihydropyrrolo[3,4-d]imidazol-4(1H)-one]	0.189	0.371	16.4	0.136	0.0845	0.22	1.23	0.3505	0.947	>10
COc1ncccc1-c1nc2c([nH]1)C(c1ccc(Cl)cc1)N(c1cc(C)c3nnn(C)c3c1)C2=O (centres unmarked) [Example 133, 6-(4-chlorophenyl)-5-(3,7-dimethyl-3H-benzo[d][1,2,3]triazol-5-yl)-2-(2-methoxypyridin-3-yl)-5,6-dihydropyrrolo[3,4-d]imidazol-4(1H)-one]	0.0351	0.0656	5.4	0.0195	0.023	0.035	0.142	0.0608	0.1375	>10
Cc1cc(N2C(=O)c3nc(C4=CCN(C)CC4)[nH]c3C2c2ccc(Cl)cc2)cn(C)c1=O (centres unmarked) [Example 135, 6-(4-chlorophenyl)-5-(1,5-dimethyl-6-oxo-1,6-dihydropyridin-3-yl)-2-(1-methyl-1,2,3,6-tetrahydropyridin-4-yl)-5,6-dihydropyrrolo[3,4-d]imidazol-4(1H)-one]	0.0649	0.265	3.85	0.037	0.031	0.053	0.806	0.1115	0.964	>10

The next lines start with results.

GI50 (MV-4-11 cells) [µM]	GI50 (THP-1 cells) [µM]	IC50 [1] [µM]	IC50 (BRD3 (His-Brd3(20-477))) [µM]	IC50 (BRD4 (His-Brd4(44-477))) [µM]	IC50 (BRD2 (His-Brd2(60-472))) [µM]	GI50 (K-562 cells) [µM]	SMILES	MV-4-11 TGI (MV-4-11 cells) [µM]	THP-1 TGI (THP-1 cells) [µM]	K-562 TGI (K-562 cells) [µM]
0.00448	0.00694	35.9	< 0.011	< 0.011	0.012	0.0306	Cc1cc(N2C(=O)c3nc(C)n(C(C)C)c3[C@H]2c2ccc(Cl)cc2)nn2c(C)nnc12 [Example 110, (R)-6-(4-chlorophenyl)-5-(3,8-dimethyl-[1,2,4]triazolo[4,3-b]pyridazin-6-yl)-1-isopropyl-2-methyl-5,6-dihydropyrrolo[3,4-d]imidazol-4(1H)-one]	0.011	0.0216	>10
0.209	0.662	> 37	2.32	1.84	4.7	1.07	COc1ccc(-c2nc3c([nH]2)[C@@H](c2ccc(Cl)cc2)N(c2cc(C)c4nnc(C)n4c2)C3=O)cn1 [Example 129, (R)-6-(4-chlorophenyl)-5-(3,8-dimethyl-[1,2,4]triazolo[4,3-a]pyridin-6-yl)-2-(6-methoxypyridin-3-yl)-5,6-dihydropyrrolo[3,4-d]imidazol-4(1H)-one]	0.343	1.08	>10
0.167	0.526	2.4	0.16	0.18	0.23	1.95	Cc1cc(N2C(=O)c3nc(N4CCOCC4)n(C)c3C2c2ccc(Cl)cc2)cn(C)c1=O (centres unmarked) [Example 130, 6-(4-chlorophenyl)-5-(1,5-dimethyl-6-oxo-1,6-dihydropyridin-3-yl)-1-methyl-2-morpholino-5,6-dihydropyrrolo[3,4-d]imidazol-4(1H)-one]	0.3905	1.21	>10
0.0164	0.0238	> 37	0.031	0.028	0.049	0.0875	Cc1cc(N2C(=O)c3nc(C)n(C(C)C)c3C2c2ccc(Cl)cc2)cn2c(C(F)F)nnc12 (centres unmarked) [Example 131, 6-(4-chlorophenyl)-5-(3-(difluoromethyl)-8-methyl-[1,2,4]triazolo[4,3-a]pyridin-6-yl)-1-isopropyl-2-methyl-5,6-dihydropyrrolo[3,4-d]imidazol-4(1H)-one]	0.0295	0.055	>10
0.00944	0.0126	27.5	0.012	< 0.011	0.019	0.0518	COc1ncccc1-c1nc2c(n1C(C)C)C(c1ccc(Cl)cc1)N(c1cc(C)c3nnc(C(F)F)n3c1)C2=O (centres unmarked) [Example 132, 6-(4-chlorophenyl)-5-(3-(difluoromethyl)-8-methyl-[1,2,4]triazolo[4,3-a]pyridin-6-yl)-1-isopropyl-2-(2-methoxypyridin-3-yl)-5,6-dihydropyrrolo[3,4-d]imidazol-4(1H)-one]	0.0189	0.03315	>10
0.0724	0.12	1.68	0.035	0.038	0.08	0.61	Cc1cc(N2C(=O)c3nc(C4=CCOCC4)[nH]c3C2c2ccc(Cl)cc2)cn(C)c1=O (centres unmarked) [Example 134, 6-(4-chlorophenyl)-2-(3,6-dihydro-2H-pyran-4-yl)-5-(1,5-dimethyl-6-oxo-1,6-dihydropyridin-3-yl)-5,6-dihydropyrrolo[3,4-d]imidazol-4(1H)-one]	0.141	0.399	>10
